The source made the active and inactive calls.
Columns and labels:
[1] = molecular target: T1, Nucleotide-binding oligomerization domain-containing protein 1 (Homo sapiens, UniProt Q9Y239); experiment: NOD1 signaling inhibitors, SAR follow-up, revised (AID 2333); assay type: functional
T1 sequence (Q9Y239 whole entry): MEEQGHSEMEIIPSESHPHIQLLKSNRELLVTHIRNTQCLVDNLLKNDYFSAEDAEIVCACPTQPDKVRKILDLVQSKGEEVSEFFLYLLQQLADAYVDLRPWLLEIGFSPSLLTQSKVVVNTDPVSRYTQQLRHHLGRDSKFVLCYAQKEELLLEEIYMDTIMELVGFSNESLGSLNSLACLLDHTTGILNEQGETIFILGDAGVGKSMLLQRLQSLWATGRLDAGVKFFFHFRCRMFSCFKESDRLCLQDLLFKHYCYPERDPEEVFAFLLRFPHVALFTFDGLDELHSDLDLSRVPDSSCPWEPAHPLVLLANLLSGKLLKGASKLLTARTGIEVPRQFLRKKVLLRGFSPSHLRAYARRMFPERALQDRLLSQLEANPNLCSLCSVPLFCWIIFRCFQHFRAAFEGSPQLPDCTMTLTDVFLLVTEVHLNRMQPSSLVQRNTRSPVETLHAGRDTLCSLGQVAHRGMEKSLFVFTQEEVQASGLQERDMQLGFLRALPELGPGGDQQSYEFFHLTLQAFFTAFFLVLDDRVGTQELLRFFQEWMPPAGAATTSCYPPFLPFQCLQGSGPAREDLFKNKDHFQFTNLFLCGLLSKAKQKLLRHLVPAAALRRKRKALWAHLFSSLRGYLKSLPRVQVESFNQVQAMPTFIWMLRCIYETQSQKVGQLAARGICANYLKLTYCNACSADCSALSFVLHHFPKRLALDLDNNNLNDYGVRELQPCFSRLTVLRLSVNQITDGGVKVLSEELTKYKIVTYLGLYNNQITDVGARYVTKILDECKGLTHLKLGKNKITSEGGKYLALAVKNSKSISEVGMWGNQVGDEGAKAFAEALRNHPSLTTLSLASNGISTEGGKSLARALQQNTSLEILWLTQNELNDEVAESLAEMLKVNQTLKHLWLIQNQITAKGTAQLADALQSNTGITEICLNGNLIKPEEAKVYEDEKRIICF

Tumor necrosis factor [2] = molecular target: T2, Tumor necrosis factor (Homo sapiens, UniProt P01375); experiment: TNFa-triggered NF-kB activation inhibitors, SAR follow-up, cell-based, revised (AID 2337); assay type: functional
[3] = molecular target: T3, Nucleotide-binding oligomerization domain-containing protein 2 (Homo sapiens, UniProt Q9HC29); experiment: PubChem AID 2334; assay type: functional
HEK293 [4] = experiment: cells; settings: Homo sapiens
Cytochrome P450 2D6 = Cytochrome P450 2D6 (Homo sapiens, UniProt P10635);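 further: CYP2D6 member of a cytochrome P450 panel assay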
Cytochrome P450 2C9 = Cytochrome P450 2C9 (Homo sapiens, UniProt P11712)
Interleukin-8 [5] = molecular target: T4, Interleukin-8 (Homo sapiens, UniProt P10145); experiment: SAR analysis of Tumor necrosis factor alpha (TNF-alpha) induced IL-8 secretion in MCF-7/NOD1 cells - Set 2. [Related pubchem assays (depositor defined):AID1575, AID2250, AID2260]; assay type: functional, cell-based
[6] = molecular target: T1, Nucleotide-binding oligomerization domain-containing protein 1; experiment: SAR analysis of compounds that inhibit NOD1 - Set 2. [Related pubchem assays (depositor defined):AID1566, AID1575, AID1578, AID1849, AID1852, AID2333, AID2335, AID2798]; assay type: functional
HEK293 [7] = experiment: SAR analysis of compounds that are cytotoxic to HEK293 - Set 2. [Related pubchem assays (depositor defined):AID1575, AID1578, AID1849, AID2001, AID2333, AID2334, AID2335, AID2337, AID2800]; assay type: functional, cell-based; settings: Homo sapiens
[8] = molecular target: T3, Nucleotide-binding oligomerization domain-containing protein 2; experiment: NOD2 signaling inhibitors, analog potency, SAR follow-up, cell-based, set 3 (AID 2799); assay type: functional
[9] = molecular target: T1, Nucleotide-binding oligomerization domain-containing protein 1; experiment: SAR analysis of compounds that inhibit NOD1 - Set 3. [Related pubchem assays (depositor defined):AID1566, AID1575, AID1578, AID1849, AID1852, AID2333, AID2335, AID2466]; assay type: functional
Fatty acid synthase [10] = molecular target: T5, Fatty acid synthase (Homo sapiens, UniProt P49327); experiment: FAS thioesterase domain inhibitors, dose response, biochemical, kinetic fluorescence intensity (AID 624326); assay type: functional;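 further: rate of fluorescence rise from hydrolysis of a fluorogenic O-methyl fluorescein ester substrate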
Interleukin-8 [11] = molecular target: T4, Interleukin-8; experiment: SAR analysis of GM-Tri-DAP induced IL-8 secretion in MCF-7/NOD1 cells - Set 2. [Related pubchem assays (depositor defined):AID1575, AID1578, AID2333]; assay type: functional, cell-based
[12] = molecular target: T1, Nucleotide-binding oligomerization domain-containing protein 1; experiment: SAR analysis of NF-kappaB dependent luciferase using DAP as an inducer - Set 2. [Related pubchem assays (depositor defined):AID1566, AID1575, AID1578, AID1579, AID1849, AID1852, AID2264]; assay type: functional
[13] = molecular target: T6, High affinity choline transporter 1 (Homo sapiens, UniProt Q9GZV3); experiment: CHT inhibitors, dose response, cell-based, 5-point CRC, membrane potential dye (AID 504840); assay type: functional
T6 sequence (Q9GZV3 whole entry): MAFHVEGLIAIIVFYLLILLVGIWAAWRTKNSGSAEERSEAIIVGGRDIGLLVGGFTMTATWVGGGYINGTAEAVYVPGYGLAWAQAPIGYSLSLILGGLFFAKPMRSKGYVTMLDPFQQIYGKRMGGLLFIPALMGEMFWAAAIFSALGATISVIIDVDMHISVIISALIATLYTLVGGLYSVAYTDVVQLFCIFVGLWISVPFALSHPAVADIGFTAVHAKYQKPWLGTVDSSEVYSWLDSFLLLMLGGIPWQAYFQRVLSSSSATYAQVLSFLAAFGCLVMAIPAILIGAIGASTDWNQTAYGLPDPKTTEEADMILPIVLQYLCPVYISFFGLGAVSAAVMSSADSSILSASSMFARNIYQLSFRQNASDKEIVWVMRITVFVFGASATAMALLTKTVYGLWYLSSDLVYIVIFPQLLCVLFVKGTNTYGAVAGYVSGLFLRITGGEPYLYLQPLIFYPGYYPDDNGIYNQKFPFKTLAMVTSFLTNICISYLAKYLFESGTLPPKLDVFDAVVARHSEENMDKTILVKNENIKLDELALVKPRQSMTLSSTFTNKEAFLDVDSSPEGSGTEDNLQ

[14] = molecular target: T3, Nucleotide-binding oligomerization domain-containing protein 2; experiment: NOD2 inhibitors, SAR follow-up, set 2 (AID 2475); assay type: functional
HEK293 [15] = experiment: SAR analysis of compounds that are cytotoxic to HEK293 - Set 3. [Related pubchem assays (depositor defined):AID1575, AID1578, AID1848, AID1849, AID2001, AID2333, AID2334, AID2335, AID2337, AID2469]; assay type: functional, cell-based; settings: Homo sapiens
Fatty acid synthase [16] = molecular target: T5, Fatty acid synthase; experiment: FAS thioesterase domain inhibitors, dose response, biochemical, endpoint fluorescence intensity, uHTS hits (AID 624327); assay type: functional;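 further: fluorescence from hydrolysis of an O-methyl fluorescein acyl ester substrate by the enzyme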
Tumor necrosis factor [17] = molecular target: T2, Tumor necrosis factor; experiment: TNFa-triggered NF-kB activation inhibitors, SAR follow-up, cell-based, set 3 (AID 2801); assay type: functional
[18] = molecular target: Dual specificity protein phosphatase 3 (Homo sapiens, UniProt P51452); experiment: SAR VHR1 Fluorescent Assay for In Vitro dose response studies Set 3. [Related pubchem assays (depositor defined):AID1654, AID1661, AID1878]; assay type: functional
Chain of Dual specificity protein phosphatase 3 (P51452 whole entry): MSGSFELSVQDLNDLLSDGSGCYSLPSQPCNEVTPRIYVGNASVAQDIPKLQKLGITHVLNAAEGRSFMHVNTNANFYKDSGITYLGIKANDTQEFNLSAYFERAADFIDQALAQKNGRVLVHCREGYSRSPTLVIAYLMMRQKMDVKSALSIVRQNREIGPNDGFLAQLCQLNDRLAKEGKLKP

T3 sequence (Q9HC29 whole entry, the tested form may be a part): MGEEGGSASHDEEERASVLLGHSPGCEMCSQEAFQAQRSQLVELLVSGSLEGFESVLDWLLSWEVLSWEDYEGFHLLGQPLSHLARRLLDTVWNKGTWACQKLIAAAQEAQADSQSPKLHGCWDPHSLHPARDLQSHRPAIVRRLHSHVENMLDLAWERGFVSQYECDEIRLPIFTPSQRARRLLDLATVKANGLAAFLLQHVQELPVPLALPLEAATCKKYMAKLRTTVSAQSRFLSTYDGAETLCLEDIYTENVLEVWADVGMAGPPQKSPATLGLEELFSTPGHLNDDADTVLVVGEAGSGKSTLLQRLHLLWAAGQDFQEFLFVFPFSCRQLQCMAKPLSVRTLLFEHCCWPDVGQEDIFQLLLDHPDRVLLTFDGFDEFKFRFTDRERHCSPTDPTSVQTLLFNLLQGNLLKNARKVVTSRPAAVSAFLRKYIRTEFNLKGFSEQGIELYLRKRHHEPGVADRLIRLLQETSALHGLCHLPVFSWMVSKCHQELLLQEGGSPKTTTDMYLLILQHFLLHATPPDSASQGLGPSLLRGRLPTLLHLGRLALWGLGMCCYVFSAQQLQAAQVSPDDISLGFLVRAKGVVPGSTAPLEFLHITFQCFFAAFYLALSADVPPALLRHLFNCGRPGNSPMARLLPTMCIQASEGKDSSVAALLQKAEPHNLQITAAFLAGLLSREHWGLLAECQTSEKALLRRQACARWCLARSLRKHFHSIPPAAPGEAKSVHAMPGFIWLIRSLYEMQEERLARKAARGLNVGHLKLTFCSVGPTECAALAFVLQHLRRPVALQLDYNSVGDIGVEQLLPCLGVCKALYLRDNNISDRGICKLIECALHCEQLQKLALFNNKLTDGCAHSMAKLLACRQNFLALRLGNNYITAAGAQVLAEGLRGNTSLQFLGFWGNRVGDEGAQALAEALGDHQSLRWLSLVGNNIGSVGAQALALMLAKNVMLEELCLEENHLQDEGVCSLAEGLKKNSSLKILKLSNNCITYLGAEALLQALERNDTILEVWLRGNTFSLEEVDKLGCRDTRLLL
T2 sequence (P01375 whole entry, the tested form may be a part): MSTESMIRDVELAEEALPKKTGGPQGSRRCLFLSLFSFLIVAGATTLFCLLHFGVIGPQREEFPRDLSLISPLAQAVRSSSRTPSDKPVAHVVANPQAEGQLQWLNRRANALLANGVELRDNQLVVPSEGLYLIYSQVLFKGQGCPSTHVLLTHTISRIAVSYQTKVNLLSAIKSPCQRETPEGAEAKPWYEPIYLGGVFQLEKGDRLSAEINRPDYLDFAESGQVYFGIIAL
T4 sequence (P10145 whole entry, the tested form may be a part): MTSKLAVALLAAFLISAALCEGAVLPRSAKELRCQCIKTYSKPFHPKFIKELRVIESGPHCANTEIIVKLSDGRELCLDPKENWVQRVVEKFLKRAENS
T5 sequence (P49327 whole entry, the tested form may be a part): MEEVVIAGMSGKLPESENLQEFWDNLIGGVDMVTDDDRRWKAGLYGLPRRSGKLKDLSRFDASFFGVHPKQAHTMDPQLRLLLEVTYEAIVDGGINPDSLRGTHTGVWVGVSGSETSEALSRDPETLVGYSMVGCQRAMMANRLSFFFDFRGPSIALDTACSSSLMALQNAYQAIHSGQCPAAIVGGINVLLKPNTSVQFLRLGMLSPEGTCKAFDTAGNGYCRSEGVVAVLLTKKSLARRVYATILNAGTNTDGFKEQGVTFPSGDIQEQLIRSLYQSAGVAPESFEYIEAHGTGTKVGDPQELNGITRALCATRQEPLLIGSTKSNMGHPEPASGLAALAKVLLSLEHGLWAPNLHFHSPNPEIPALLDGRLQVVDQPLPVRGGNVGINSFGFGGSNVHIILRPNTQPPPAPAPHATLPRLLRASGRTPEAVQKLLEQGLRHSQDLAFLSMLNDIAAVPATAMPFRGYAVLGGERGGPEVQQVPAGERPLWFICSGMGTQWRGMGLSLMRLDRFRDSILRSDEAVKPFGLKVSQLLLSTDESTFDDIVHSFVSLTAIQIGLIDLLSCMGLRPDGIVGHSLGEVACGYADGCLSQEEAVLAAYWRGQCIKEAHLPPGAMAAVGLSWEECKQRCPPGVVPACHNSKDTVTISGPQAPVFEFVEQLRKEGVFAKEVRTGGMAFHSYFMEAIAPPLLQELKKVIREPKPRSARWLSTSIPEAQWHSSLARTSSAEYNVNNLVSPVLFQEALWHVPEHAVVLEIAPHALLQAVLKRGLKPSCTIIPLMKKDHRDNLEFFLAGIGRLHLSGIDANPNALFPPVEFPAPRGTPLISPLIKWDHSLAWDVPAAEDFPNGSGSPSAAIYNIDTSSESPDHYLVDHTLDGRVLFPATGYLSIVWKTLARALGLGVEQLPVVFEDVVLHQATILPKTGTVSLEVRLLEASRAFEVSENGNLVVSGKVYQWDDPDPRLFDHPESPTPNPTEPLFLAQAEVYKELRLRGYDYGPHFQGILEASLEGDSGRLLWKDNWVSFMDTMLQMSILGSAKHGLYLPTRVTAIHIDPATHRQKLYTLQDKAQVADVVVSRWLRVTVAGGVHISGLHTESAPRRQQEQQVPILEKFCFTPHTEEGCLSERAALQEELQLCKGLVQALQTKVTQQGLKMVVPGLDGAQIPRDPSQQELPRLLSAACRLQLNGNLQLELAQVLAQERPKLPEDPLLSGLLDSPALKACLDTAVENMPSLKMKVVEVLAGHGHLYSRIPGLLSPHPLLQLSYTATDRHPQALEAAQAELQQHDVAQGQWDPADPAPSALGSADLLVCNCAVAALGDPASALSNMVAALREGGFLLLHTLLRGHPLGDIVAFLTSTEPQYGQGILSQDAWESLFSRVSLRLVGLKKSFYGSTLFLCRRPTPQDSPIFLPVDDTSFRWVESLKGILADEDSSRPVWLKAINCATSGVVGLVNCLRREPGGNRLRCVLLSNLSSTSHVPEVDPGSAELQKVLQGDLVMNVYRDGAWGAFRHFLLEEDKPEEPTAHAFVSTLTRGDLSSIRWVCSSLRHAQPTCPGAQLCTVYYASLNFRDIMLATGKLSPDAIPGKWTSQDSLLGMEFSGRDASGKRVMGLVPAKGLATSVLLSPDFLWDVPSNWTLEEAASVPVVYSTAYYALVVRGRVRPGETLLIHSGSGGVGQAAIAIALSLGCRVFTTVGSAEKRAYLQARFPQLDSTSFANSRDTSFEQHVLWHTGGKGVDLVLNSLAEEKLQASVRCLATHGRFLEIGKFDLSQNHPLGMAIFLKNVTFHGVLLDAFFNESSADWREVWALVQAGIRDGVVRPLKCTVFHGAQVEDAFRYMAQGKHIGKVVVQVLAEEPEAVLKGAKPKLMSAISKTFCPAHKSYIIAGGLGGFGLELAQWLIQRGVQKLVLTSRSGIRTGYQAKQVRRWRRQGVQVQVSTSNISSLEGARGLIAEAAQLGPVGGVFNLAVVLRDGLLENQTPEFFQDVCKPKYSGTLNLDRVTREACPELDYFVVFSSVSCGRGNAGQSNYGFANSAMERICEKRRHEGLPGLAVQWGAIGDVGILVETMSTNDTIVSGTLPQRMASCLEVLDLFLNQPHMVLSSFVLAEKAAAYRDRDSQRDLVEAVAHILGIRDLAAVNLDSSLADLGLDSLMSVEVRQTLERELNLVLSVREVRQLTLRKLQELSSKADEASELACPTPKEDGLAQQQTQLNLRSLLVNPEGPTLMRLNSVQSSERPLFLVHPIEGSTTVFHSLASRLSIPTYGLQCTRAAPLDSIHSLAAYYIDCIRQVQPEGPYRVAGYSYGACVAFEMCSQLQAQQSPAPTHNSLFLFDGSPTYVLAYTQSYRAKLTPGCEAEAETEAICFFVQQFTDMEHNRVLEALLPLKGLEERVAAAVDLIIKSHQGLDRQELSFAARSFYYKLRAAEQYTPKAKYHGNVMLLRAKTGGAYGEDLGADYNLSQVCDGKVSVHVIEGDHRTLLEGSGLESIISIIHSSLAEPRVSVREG
Chain of Cytochrome P450 2C9 (P11712 whole entry): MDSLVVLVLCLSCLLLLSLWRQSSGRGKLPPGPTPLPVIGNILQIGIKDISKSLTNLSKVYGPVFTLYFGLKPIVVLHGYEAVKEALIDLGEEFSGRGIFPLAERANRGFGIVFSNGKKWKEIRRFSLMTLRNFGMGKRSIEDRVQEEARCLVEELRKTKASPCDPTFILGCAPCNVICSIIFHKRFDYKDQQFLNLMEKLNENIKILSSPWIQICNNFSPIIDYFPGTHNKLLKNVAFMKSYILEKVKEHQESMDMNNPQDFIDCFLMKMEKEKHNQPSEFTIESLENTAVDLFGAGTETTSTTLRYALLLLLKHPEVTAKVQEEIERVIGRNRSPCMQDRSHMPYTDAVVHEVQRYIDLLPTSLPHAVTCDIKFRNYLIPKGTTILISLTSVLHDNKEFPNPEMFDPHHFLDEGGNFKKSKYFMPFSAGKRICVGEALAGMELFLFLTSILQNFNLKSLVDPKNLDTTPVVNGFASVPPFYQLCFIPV
Chain of Cytochrome P450 2D6 (P10635 whole entry): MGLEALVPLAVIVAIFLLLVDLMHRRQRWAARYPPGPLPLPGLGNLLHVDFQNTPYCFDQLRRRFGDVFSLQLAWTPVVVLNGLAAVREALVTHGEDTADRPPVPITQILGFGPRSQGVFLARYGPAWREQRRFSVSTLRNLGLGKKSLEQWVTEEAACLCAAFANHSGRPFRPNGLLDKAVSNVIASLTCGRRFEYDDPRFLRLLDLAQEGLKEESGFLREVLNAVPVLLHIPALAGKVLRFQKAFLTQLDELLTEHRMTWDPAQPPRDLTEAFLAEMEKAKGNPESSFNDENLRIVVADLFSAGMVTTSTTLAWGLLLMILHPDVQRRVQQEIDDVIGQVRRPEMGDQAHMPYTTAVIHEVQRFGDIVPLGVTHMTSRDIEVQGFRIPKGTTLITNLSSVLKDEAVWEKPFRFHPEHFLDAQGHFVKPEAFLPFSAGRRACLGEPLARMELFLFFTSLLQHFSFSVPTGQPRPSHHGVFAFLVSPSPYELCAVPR

CC1(C)Cc2c(sc(NC(=O)c3ccccc3Cl)c2C(=O)O)CO1
IC50 [1]: > 20 µM (inactive)
IC50 (Tumor necrosis factor [2]): > 20 µM (inactive)
IC50 [3]: > 20 µM (inactive)
IC50 (HEK293 [4]): > 20 µM (inactive)

CCOC(=O)COc1c(C=O)cc(Br)cc1OC
AC50 (Cytochrome P450 2D6): inconclusive
AC50 (Cytochrome P450 2C9): inconclusive

CCCCn1c(CN2CCN(c3cccc(Cl)c3)CC2)nc2c1c(=O)n(C)c(=O)n2C
IC50 (Interleukin-8 [5]): > 25 µM (inactive)
IC50 [6]: 2.18 µM (active)
IC50 (HEK293 [7]): > 20 µM (inactive)
IC50 [8]: 1.41 µM (active)
IC50 [9]: 1.8 µM (active)
IC50 (Fatty acid synthase [10]): 5.74 µM (active)
IC50 (Interleukin-8 [11]): > 25 µM (inactive)
IC50 [12]: 8.7 µM (active)
IC50 [13]: 15.1 µM (active)
IC50 [14]: 2.21 µM (active)
IC50 (HEK293 [15]): > 20 µM (inactive)
IC50 (Fatty acid synthase [16]): 5.07 µM (active)
IC50 (Tumor necrosis factor [17]): 3.35 µM (active)

Cc1ccc2sc(-c3ccc(NC(=O)c4cc(-n5cnnc5)ccc4Cl)cc3)nc2c1
IC50 [18]: 11.4 µM (active)
